For 20 compounds, TGI and GI50 results are on record in PubChem BioAssay (NCI).

A word on the TGI: it is the concentration giving total growth inhibition. Lower therefore signals more potent growth arrest. One may read the GI50 as the concentration giving 50% growth inhibition.

Where “and” joins values, the source holds several entries; their conditions need not be identical. Equal values may be shown once.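 Protocol summary: plate cells (96-well), add compound at 5 concentrations, incubate 48 h, interpolate endpoints linearly. At the GI50, growth is halved. TGI is the concentration that stops growth completely.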 Bounds are passed on as bounds.

Holding throughout (assay): DTP human tumour cell line panel, 48 h
Assay [1] has as its system COLO 205 colon.
In assay [2] the test system is UACC-257 melanoma.
The test system of assay [3] is RXF 393 renal.
Assay [4] relates to KM12 colon.
Assay [5] concerns NCI-H522 lung.
For assay [6], the system named is IGROV1 ovarian.
Assay [7] relates to HL-60(TB) leukemia.
Assay [8] has as its system CCRF-CEM leukemia.
The subject of assay [9] is K-562 leukemia.
Assay [10] has as its system NCI/ADR-RES ovarian.

With `COCCOCOC(C)(C)[C@H](CCO)O[Si](c1ccccc1)(c1ccccc1)C(C)(C)C`, the total growth inhibition concentration (TGI) in assay [1] stood at 33.9 µM; in assay [2], 23.5 µM; in assay [3], 17.8 µM; in [4] it was 31.9 µM; in assay [5], 15.4 µM; in assay [6], 22.9 µM. In assay [7], this compound had a TGI of 9.05 µM.

In the case of `C/C(=N\NC(=S)Nc1ccc([N+](=O)[O-])cc1)c1nc2ncccc2[nH]1`, the concentration for total growth inhibition (TGI) in [8] is 12.4 µM; in [9] it was greater than 100 µM; in assay [1], 23.1 µM; in [2], 2.96 µM; in assay [10], 5.22 µM; in assay [4], greater than 100 µM. Besides, the figures for the concentration for total growth inhibition (TGI) in assay [5], in assay [6] and in [7] were 3.25 µM, 4.75 µM and greater than 100 µM, respectively.

For the compound `c1ccc2cc3c(cc2c1)OP1(Oc2cccc4cccnc24)(O3)Oc2cc3ccccc3cc2O1`, the concentration for total growth inhibition (TGI) is greater than 100 µM in [8]; greater than 40.3 µM in assay [9]; greater than 100 µM in assay [1]; 8.94 µM in [2]; greater than 100 µM in [3]; 19.2 µM in assay [10]. Further, the TGI was 21.8 µM in assay [4], 35.4 µM in assay [5], greater than 100 µM in assay [6] and 5.78 µM in assay [7].

On to `O=C1c2ccccc2C(=O)c2c1cc1c(c2[N+](=O)[O-])OCO1`, for which the GI50 in [8] was 0.492 µM; in assay [9], 0.621 µM; in assay [1], 3.46 µM; in assay [2] it was 11.8 µM; in assay [3] it was 0.506 µM; in [10] it was 1.15 µM. Further, the GI50 in assay [4] was 1.45 µM; in assay [5], 2.01 µM; in assay [6], 1.21 µM; in [7] it was 0.465 µM. Further, the concentration for total growth inhibition (TGI) in [8] is greater than 100 µM; in [9], 6.26 µM; in assay [1], 16.8 µM; in assay [2], 41.5 µM; in assay [3], 2.04 µM; in assay [10], 8.87 µM. The TGI in assay [4] was found to be 5.94 µM; in assay [5], 4.68 µM; in assay [6], 7.62 µM; in assay [7], 8.94 µM.

As to `C/C(N=NS(=O)(=O)c1ccc(C)cc1)=C1\C=CC=CN1O`, the total growth inhibition concentration (TGI) in assay [8], in [2], in [4], in [5], in assay [6] and in assay [7] was greater than 100 µM in each case.

On to `O=C(O)CCCc1ccccc1`, for which the GI50 in [8] is greater than 1000 µM; in [9], greater than 1000 µM; in assay [1], 363 µM and > 1000 µM; in assay [2], 340 µM and > 1000 µM; in [3], greater than 1000 µM; in assay [10], 83.1 µM and 21.2 µM. For the same compound, the GI50 in [4] was greater than 1000 µM; in assay [5] it was greater than 1000 µM; in assay [6] it was 412 µM and > 1000 µM; in [7], greater than 1000 µM. The concentration for total growth inhibition (TGI) in assay [8] is 350 µM and > 1000 µM; in assay [9] it was 338 µM and > 1000 µM; in assay [1], greater than 1000 µM; in assay [2], greater than 1000 µM; in assay [3] it was 604 µM and > 1000 µM; in assay [10], 343 µM and 47.1 µM. The TGI in [4] is 366 µM and > 1000 µM; in [5] it was 634 µM and > 1000 µM; in assay [6], greater than 1000 µM; in assay [7], greater than 1000 µM.

For the compound `Nc1n[nH]c(CCCCCCCc2nc(N)n[nH]2)n1`, the TGI in assay [8], in [9], in [2], in assay [3], in assay [4] and in [5] was greater than 100 µM throughout. The same compound registered a concentration for total growth inhibition (TGI) in assay [7] greater than 100 µM.

Regarding `OC1COC(OCc2ccccc2)C(O)C1O` (stereo unspecified), the TGI in assay [8], in assay [9], in assay [1], in [2], in [3] and in assay [10] was greater than 100 µM in each case. Moreover, the TGI in [4], in [5], in [6] and in [7] was greater than 100 µM in each case.

`O=C(O)CC12CC3CC(CC(O)(C3)C1)C2`: the TGI in assay [9], in assay [1], in assay [2], in [3], in [10] and in assay [4] was greater than 100 µM throughout. For the same compound, the TGI in assay [5] was 59.4 µM; in [6], greater than 100 µM.

Turning to `C=CCNC(=O)CN(CC(=O)OC)C1CCCCC1N(CC(=O)OC)CC(=O)OC` (stereo unspecified), the TGI in assay [8], in [9], in assay [2], in assay [3], in assay [10] and in [4] was greater than 100 µM throughout. In addition, the TGI in [5], in assay [6] and in [7] was greater than 100 µM throughout.

Take `CC(C)=CCC/C(C)=C/CCC1(C)C=Cc2c(c3ccccc3oc2=O)O1` (stereo unspecified): the TGI in assay [8] was greater than 74 µM; in assay [9], greater than 89 µM; in [1] it was 35.5 µM; in assay [2] it was 31.2 µM; in assay [3] it was 27.8 µM; in [10], 31.1 µM. In addition, the TGI in [4] was 33.2 µM; in assay [5], 29.3 µM; in assay [6] it was 30.8 µM; in assay [7] it was greater than 75.8 µM.

Regarding `COc1cc(C(=O)C2CC3(CCC2(O)c2cc(OC)c(OC)c(OC)c2)CC(=O)Nc2ccccc2C3=O)cc(OC)c1OC` (stereo unspecified), the TGI in assay [8] was greater than 100 µM; in [9], greater than 100 µM; in [1], 62.6 µM; in assay [2], greater than 100 µM; in [3], greater than 100 µM; in assay [10], greater than 100 µM. The total growth inhibition concentration (TGI) in [6] is greater than 100 µM; in assay [7], 78.8 µM.

As for `Cc1cn(C2CC(O)C(Cn3nncc3Cn3ncc(=O)[nH]c3=O)O2)c(=O)[nH]c1=O` (stereo unspecified), the concentration for total growth inhibition (TGI) in [8], in assay [1], in assay [2], in assay [3], in assay [10] and in assay [4] was greater than 100 µM throughout. The same compound registered a total growth inhibition concentration (TGI) in assay [6] greater than 100 µM.

In the case of `COc1cc(/C=C/C2=C(C#N)C(=O)OC2(C)C)ccc1O`, the TGI in assay [8] is 33.1 µM; in assay [9], greater than 100 µM; in [1], greater than 100 µM; in assay [2], greater than 100 µM; in [3], greater than 100 µM; in assay [4], greater than 100 µM. Moreover, the TGI is 44.4 µM in [5], greater than 100 µM in assay [6] and greater than 100 µM in assay [7].

With `Cc1cccc(CNc2ncnc3[nH]ncc23)c1`, the TGI in assay [8], in [9], in [1], in assay [2], in assay [3] and in assay [10] was greater than 100 µM each time. For the same compound, the TGI in assay [4], in [5], in assay [6] and in [7] was greater than 100 µM each time.

As to `CC(C)=CC(=O)OC1C2C(C)=CC(O)C(O)C2(C)C2C3(O)OCC24C(CC(=O)OC14)C(C)C3O` (stereo unspecified), the TGI in assay [8] stood at 0.624 µM; in assay [9], 1.79 µM; in assay [1], 2.77 µM; in assay [2], 2.43 µM; in assay [3], 0.933 µM; in assay [10], 123 µM. The total growth inhibition concentration (TGI) in assay [4] is 0.622 µM; in assay [5] it was 0.103 µM; in assay [6], 0.706 µM; in assay [7], 0.409 µM.

Regarding `O=C(O)C12CC3CC(C1)C2C=C3P(=O)(O)O` (stereo unspecified), the TGI in [8], in [9], in [1], in assay [2], in [3] and in assay [4] was greater than 100 µM each time. The TGI in assay [5], in [6] and in [7] was greater than 100 µM each time.

On to `CC1SC(c2ccc(Cl)cc2)N(CCc2cccs2)C1=O` (stereo unspecified), for which the GI50 in [8] is 2.14 µM; in [1], 1.63 µM; in assay [2] it was 1.99 µM; in [3] it was 1.56 µM; in assay [10] it was 1.39 µM; in [4] it was 1.52 µM. The GI50 in [5] is 1.34 µM; in assay [6] it was 1.8 µM; in assay [7] it was 2.58 µM. In addition, the concentration for total growth inhibition (TGI) in [8] came to 11.3 µM; in assay [1], 3.02 µM; in assay [2] it was 4.23 µM; in assay [3] it was 2.94 µM; in assay [10], 3.2 µM; in assay [4], 3.36 µM. In addition, the results for the concentration for total growth inhibition (TGI) in [5], in assay [6] and in assay [7] were 2.75 µM, 5.77 µM and 8.73 µM, respectively.

Consider `Cc1c(C2=NN=C(N=Nc3c(O)cccc3O)/C2=C/c2ccccc2)c(=O)n(-c2ccccc2)n1C`, for which the TGI in assay [8], in [9], in assay [1], in [2], in [3] and in [10] was greater than 100 µM in each case. Besides, the TGI in assay [4], in assay [5], in assay [6] and in assay [7] was greater than 100 µM in each case.

With `C=C1C2CCC3(CCC4C5(C)CCCC4(C=[N+](CCO)C5)C3C2)C1O` (stereo unspecified), the TGI in assay [8], in [1], in assay [2], in assay [3], in assay [10] and in [4] was greater than 100 µM in each case. Besides, the total growth inhibition concentration (TGI) in assay [5], in [6] and in [7] was greater than 100 µM throughout.
